In patent US7307145B2, “Sodium-independent transporter transporting small-sized neutral amino acid, gene thereof and method of analyzing transporter function by constructing fused proteins enabling the specification of the function” (Japan Science and Technology Agency, priority 2001, dated 2007):

T1: Asc-2-rBAT (Mus musculus, UniProt Q8VIE6+Q91WV7)
T1 construct: expressed in transfected cells; host or cells: oocyte injected with cRNA
T1 sequence (Q8VIE6+Q91WV7 with tags, fused parts or gaps): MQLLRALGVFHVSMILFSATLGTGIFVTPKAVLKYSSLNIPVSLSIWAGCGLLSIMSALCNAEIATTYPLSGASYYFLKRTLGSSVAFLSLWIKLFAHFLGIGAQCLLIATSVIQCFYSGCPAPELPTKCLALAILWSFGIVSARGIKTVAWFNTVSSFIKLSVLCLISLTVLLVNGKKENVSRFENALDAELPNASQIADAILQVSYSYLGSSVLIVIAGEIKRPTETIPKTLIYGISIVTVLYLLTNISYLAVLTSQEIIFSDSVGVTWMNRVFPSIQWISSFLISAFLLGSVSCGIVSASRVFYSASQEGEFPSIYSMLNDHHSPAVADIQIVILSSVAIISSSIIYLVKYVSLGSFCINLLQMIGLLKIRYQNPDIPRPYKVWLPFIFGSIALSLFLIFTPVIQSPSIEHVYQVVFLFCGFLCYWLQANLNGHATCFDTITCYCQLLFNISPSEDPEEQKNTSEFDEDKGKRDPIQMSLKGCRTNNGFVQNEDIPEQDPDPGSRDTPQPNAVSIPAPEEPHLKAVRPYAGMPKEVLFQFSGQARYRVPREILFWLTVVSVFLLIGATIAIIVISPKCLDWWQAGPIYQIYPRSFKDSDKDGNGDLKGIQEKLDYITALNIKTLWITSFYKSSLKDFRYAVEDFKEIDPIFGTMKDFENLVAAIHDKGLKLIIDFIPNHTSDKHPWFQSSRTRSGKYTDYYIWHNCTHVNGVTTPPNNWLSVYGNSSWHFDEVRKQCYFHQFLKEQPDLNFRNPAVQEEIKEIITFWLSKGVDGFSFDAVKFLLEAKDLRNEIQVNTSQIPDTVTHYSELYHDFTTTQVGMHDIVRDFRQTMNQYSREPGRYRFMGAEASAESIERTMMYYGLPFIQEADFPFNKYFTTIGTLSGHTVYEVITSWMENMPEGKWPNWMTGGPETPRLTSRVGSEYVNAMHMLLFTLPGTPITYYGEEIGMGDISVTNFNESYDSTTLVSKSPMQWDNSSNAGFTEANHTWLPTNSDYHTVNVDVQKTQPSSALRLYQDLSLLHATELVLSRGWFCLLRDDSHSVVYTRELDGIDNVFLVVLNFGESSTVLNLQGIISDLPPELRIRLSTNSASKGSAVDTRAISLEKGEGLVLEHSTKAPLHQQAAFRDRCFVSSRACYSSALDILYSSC


Legend:
Asc-2-rBAT [1] = biological target: T1, Asc-2-rBAT; assay: Inhibition test: 14C-serine uptake by oocytes expressing Asc-2-rBAT with added amino acids and analogues; type: cell-based; conditions: 14C-serine 5 μM; non-labeled compound 500 μM; Na+-free uptake solution
Experimental: In a serine uptake test in an oocyte into which a cRNA of the gene of the fusion protein of the Asc-2 with the rBAT (Asc-2-rBAT) was injected, the effect of amino acids and their analogues on the system was investigated.
The serine uptake test was conducted using the oocyte into which a cRNA of the gene of the fusion protein of the Asc-2 with the rBAT (Asc-2-rBAT) was injected in accordance with the method in Section (2) in Example 2 described above. Nevertheless, the test was conducted using as a sodium-free uptake solution (Na^+-free uptake solution), and the ^14C-serine (5 μM) uptake was measured in the presence or absence of various compounds (non-labeled) at 500 μM.

[2] = system: Asc-2 fusion protein with the 4F2hc or rBAT; assay: Transport of amino acids by Asc-2 expressed on the cell membrane as fusion protein with 4F2hc or rBAT (summary statement); type: cell-based, mouse; conditions: Asc-2 fused with 4F2hc or rBAT
Source text: In addition, L-methionine, L-leucine, L-isoleucine, L-valine, L-phenylalanine, L-tyrosine, L-histidine, D-serine and D-alanine are also transported at a low affinity.

Asc-2-rBAT [3] = biological target: T1, Asc-2-rBAT; assay: Michaelis-Menten test of amino acid uptake by Xenopus oocytes injected with Asc-2-rBAT fusion protein cRNA; type: cell-based; conditions: Asc-2-rBAT expressed in oocyte; serine = 1.00; mean ± standard error, n=3
Experimental: (§1) A Michaelis-Menten pharmacodynamic test of a sodium-independent transporter Asc-2 transporting small-sized neutral amino acid was conducted. By investigating the change in the ratio of serine uptake by the difference in the substrate serine concentration, the Michaelis-Menten pharmacodynamic test of the Asc-2 was conducted.
(§2) The serine uptake test was conducted using the oocyte into which a cRNA of the gene of the fusion protein of the Asc-2 with the 4F2hc or the rBAT (Asc-2-4F2hc or Asc-2-rBAT) was injected in accordance with the method in Section (2) in Example 2 described above.
(§3) The Michaelis-Menten pharmacodynamic tests were conducted also for the amino acids, other than serine, which also serve as the substrates for the Asc-2, and the Km and Vmax values were calculated and are shown in the following Table 1.

Asc-2-rBAT [4] = biological target: T1, Asc-2-rBAT; assay: Uptake test of radiolabeled amino acids and analogues as substrates by oocytes expressing Asc-2-rBAT; type: cell-based; conditions: Asc-2-rBAT oocyte; 14C compound as substrate
Experimental: Using various amino acids and their analogues as substrates, the uptake by an oocyte into which a cRNA of the gene of the fusion protein of the Asc-2 with the rBAT (Asc-2-rBAT) had been injected was investigated.
The uptake test of various amino acids and their analogues was conducted using the oocyte into which a cRNA of the gene of the fusion protein of the Asc-2 with the rBAT (Asc-2-rBAT) had been injected in accordance with the method in Section (2) in Example 2 described above. Nevertheless, the test was conducted using as a substrate various compounds which were radiolabeled instead of ^14C-serine.

N[C@@H](CO)C(=O)O = system: T2, N[C@@H](CO)C(=O)O; assay: Michaelis-Menten test of serine uptake by Xenopus oocytes injected with Asc-2-4F2hc fusion protein cRNA; type: cell-based, mouse; conditions: other: Asc-2-4F2hc expressed in oocyte
T2 construct: expressed in transfected cells; host or cells: oocyte injected with cRNA
Experimental: as §1, §2

[5] = substrate: C[C@@H](O)[C@H](N)C(=O)O; assay: cells, lysate or membranes; conditions: other: Asc-2-rBAT expressed in oocyte; mean ± standard error, n=3
[6] = substrate: C[C@H](N)C(=O)O; assay: cells, lysate or membranes; conditions: other: Asc-2-rBAT expressed in oocyte; mean ± standard error, n=3
[7] = substrate: NCC(=O)O; assay: cells, lysate or membranes; conditions: other: Asc-2-rBAT expressed in oocyte; mean ± standard error, n=3
[8] = substrate: CC(C)C[C@H](N)C(=O)O; assay: Michaelis-Menten test of amino acid uptake by Xenopus oocytes injected with Asc-2-rBAT fusion protein cRNA; type: cell-based, mouse; conditions: other: Asc-2-rBAT expressed in oocyte; mean ± standard error, n=3
Experimental: as §1, §2, §3

[9] = substrate: CC(C)[C@H](N)C(=O)O; assay: as above; type: cell-based, mouse; conditions: other: Asc-2-rBAT expressed in oocyte; mean ± standard error, n=3
Experimental: as §1, §2, §3

[10] = substrate: N[C@@H](CO)C(=O)O; assay: as above; type: cell-based, mouse; conditions: other: Asc-2-rBAT expressed in oocyte; mean ± standard error, n=3
Experimental: as §1, §2, §3

[11] = substrate: N[C@@H](CS)C(=O)O; assay: as above; type: cell-based, mouse; conditions: other: Asc-2-rBAT expressed in oocyte; mean ± standard error, n=3
Experimental: as §1, §2, §3

Molecule	Effect on Asc-2-rBAT-mediated 14C-serine uptake (cis-inhibition) (Asc-2-rBAT [1])	Affinity of transport by Asc-2 fusion protein [2]	Vmax (ratio to the Vmax of serine) (Asc-2-rBAT [3])	further results
NC1(C(=O)O)CC2CCC1C2 (centres unmarked) [BCH, 2-amino-2-norbornane-carboxylic acid]	no effect	–	–	–
C[C@@H](N)C(=O)O [D-alanine]	–	low affinity	–	–
N[C@H](CO)C(=O)O [D-serine]	–	low affinity	–	–
NCC(=O)O [Glycine]	inhibited potently	high affinity	1.18 ± 0.05	Uptake of radiolabeled compound into the oocyte (Asc-2-rBAT [4]): substantial uptake
C[C@H](N)C(=O)O [L-Alanine]	inhibited potently	high affinity	0.83 ± 0.08	Uptake of radiolabeled compound into the oocyte (Asc-2-rBAT [4]): substantial uptake
N[C@@H](CS)C(=O)O [L-Cysteine]	inhibited potently	high affinity	0.19 ± 0.03	–
CC(C)C[C@H](N)C(=O)O [L-Leucine]	–	low affinity	1.17 ± 0.11	–
N[C@@H](CO)C(=O)O [L-Serine]	inhibited potently	high affinity	(1.00)	Uptake of radiolabeled compound into the oocyte (Asc-2-rBAT [4]): substantial uptake
C[C@@H](O)[C@H](N)C(=O)O [L-Threonine]	inhibited potently	high affinity	0.53 ± 0.06	Uptake of radiolabeled compound into the oocyte (Asc-2-rBAT [4]): substantial uptake
CC(C)[C@H](N)C(=O)O [L-Valine]	–	low affinity	0.79 ± 0.22	–
N[C@@H](Cc1c[nH]cn1)C(=O)O [L-histidine]	–	low affinity	–	–
CC[C@H](C)[C@H](N)C(=O)O [L-isoleucine]	–	low affinity	–	–
CSCC[C@H](N)C(=O)O [L-methionine]	–	low affinity	–	–
N[C@@H](Cc1ccccc1)C(=O)O [L-phenylalanine]	–	low affinity	–	–
N[C@@H](Cc1ccc(O)cc1)C(=O)O [L-tyrosine]	–	low affinity	–	–
NCCCC(=O)O [γ-aminoisoyric acid]	no effect	–	–	–
Asc-2-4F2hc (Mus musculus)	–	–	–	Km (N[C@@H](CO)C(=O)O): 2.10 µM
α-aminoisometylic acid	no effect	–	–	–
Asc-2-rBAT (Mus musculus) (protein, expressed in transfected cells; host or cells: oocyte injected with cRNA) MQLLRALGVFHVSMILFSATLGTGIFVTPKAVLKYSSLNIPVSLSIWAGCGLLSIMSALCNAEIATTYPLSGASYYFLKRTLGSSVAFLSLWIKLFAHFLGIGAQCLLIATSVIQCFYSGCPAPELPTKCLALAILWSFGIVSARGIKTVAWFNTVSSFIKLSVLCLISLTVLLVNGKKENVSRFENALDAELPNASQIADAILQVSYSYLGSSVLIVIAGEIKRPTETIPKTLIYGISIVTVLYLLTNISYLAVLTSQEIIFSDSVGVTWMNRVFPSIQWISSFLISAFLLGSVSCGIVSASRVFYSASQEGEFPSIYSMLNDHHSPAVADIQIVILSSVAIISSSIIYLVKYVSLGSFCINLLQMIGLLKIRYQNPDIPRPYKVWLPFIFGSIALSLFLIFTPVIQSPSIEHVYQVVFLFCGFLCYWLQANLNGHATCFDTITCYCQLLFNISPSEDPEEQKNTSEFDEDKGKRDPIQMSLKGCRTNNGFVQNEDIPEQDPDPGSRDTPQPNAVSIPAPEEPHLKAVRPYAGMPKEVLFQFSGQARYRVPREILFWLTVVSVFLLIGATIAIIVISPKCLDWWQAGPIYQIYPRSFKDSDKDGNGDLKGIQEKLDYITALNIKTLWITSFYKSSLKDFRYAVEDFKEIDPIFGTMKDFENLVAAIHDKGLKLIIDFIPNHTSDKHPWFQSSRTRSGKYTDYYIWHNCTHVNGVTTPPNNWLSVYGNSSWHFDEVRKQCYFHQFLKEQPDLNFRNPAVQEEIKEIITFWLSKGVDGFSFDAVKFLLEAKDLRNEIQVNTSQIPDTVTHYSELYHDFTTTQVGMHDIVRDFRQTMNQYSREPGRYRFMGAEASAESIERTMMYYGLPFIQEADFPFNKYFTTIGTLSGHTVYEVITSWMENMPEGKWPNWMTGGPETPRLTSRVGSEYVNAMHMLLFTLPGTPITYYGEEIGMGDISVTNFNESYDSTTLVSKSPMQWDNSSNAGFTEANHTWLPTNSDYHTVNVDVQKTQPSSALRLYQDLSLLHATELVLSRGWFCLLRDDSHSVVYTRELDGIDNVFLVVLNFGESSTVLNLQGIISDLPPELRIRLSTNSASKGSAVDTRAISLEKGEGLVLEHSTKAPLHQQAAFRDRCFVSSRACYSSALDILYSSC	–	–	–	Km [5]: 2.72 ± 0.44 µM; Km [6]: 2.35 ± 0.30 µM; Km [7]: 2.15 ± 0.35 µM; Km [8]: 39.6 ± 4.3 µM; Km [9]: 34.8 ± 10.6 µM; Km [10]: 2.88 ± 0.37 µM; Km [11]: 3.13 ± 0.57 µM
